Source: patent publication US9061003B2, “Therapeutic or preventive agent for diabetes” (NITTA GELATIN INC., priority 2011, dated 2015)
Square brackets hold non-standard residues; d marks the D form. Peptide text beside a SMILES is read from it. Hyp = O=C(O)[C@@H]1C[C@@H](O)CN1

target: T1, DPPIV enzyme; human recombinant (Homo sapiens, UniProt P27487); test: DPPIV inhibitory activity (DPPIV Drug Discovery Kit-AK-499, H-Gly-Pro-AMC substrate); assay type: biochemical; details: discussion of results
T1 construct: purchased BIOMOL E434-9090 (kit AK-499)
T1 sequence (P27487 whole entry): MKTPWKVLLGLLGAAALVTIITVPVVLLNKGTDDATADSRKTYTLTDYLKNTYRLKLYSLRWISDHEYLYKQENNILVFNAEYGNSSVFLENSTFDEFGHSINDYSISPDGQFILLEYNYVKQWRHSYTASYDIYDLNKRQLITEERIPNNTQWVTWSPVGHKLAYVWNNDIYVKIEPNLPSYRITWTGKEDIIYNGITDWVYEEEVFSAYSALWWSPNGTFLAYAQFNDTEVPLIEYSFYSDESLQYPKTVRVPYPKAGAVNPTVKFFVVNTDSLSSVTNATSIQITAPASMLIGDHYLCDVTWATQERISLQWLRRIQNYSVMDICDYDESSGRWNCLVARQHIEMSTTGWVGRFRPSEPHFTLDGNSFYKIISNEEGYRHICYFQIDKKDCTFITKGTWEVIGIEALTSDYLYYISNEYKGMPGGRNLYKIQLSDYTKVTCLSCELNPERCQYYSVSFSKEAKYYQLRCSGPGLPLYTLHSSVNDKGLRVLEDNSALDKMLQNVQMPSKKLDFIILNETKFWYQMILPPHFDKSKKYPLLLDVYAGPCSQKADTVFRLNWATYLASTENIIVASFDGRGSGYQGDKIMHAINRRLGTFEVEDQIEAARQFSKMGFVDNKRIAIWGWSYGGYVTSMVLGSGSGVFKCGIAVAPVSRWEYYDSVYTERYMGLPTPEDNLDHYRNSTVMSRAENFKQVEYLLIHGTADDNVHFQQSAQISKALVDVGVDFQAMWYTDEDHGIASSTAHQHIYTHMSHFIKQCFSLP
Protocol: DPPIV inhibitory activity was determined by using a DPPIV inhibitory activity measuring kit “DPPIV Drug Discovery Kit-AK-499” (manufactured by BIOMOL). […] Inhibitory activity was evaluated by the concentration at which 50% of DPPIV activity was inhibited.

Compound	DPPIV inhibitory activity (in words)
Hyp-Gly [OG]	have DPPIV inhibitory activity
Pro-Gly [PG]	have DPPIV inhibitory activity

Other lines, results leading:

DPPIV inhibitory activity (in words)	Compound
high DPPIV inhibitory activity	N[C@@H](CO)C(=O)N1C[C@H](O)C[C@H]1C(=O)NCC(=O)O [SOG, Ser-Hyp-Gly] (H-Ser-[Hyp]-Gly-OH; N-terminus and C-terminus assumed)
have DPPIV inhibitory activity	Pro-Hyp [PO]
have DPPIV inhibitory activity	Pro-Pro [PP]

same assay, conditions: peptides; human recombinant DPPIV

Compound	IC50 (concentration at which 50% of DPPIV activity was inhibited)
C[C@H](N)C(=O)N1C[C@H](O)C[C@H]1C(=O)O [AO, Ala-Hyp] (H-Ala-[Hyp]-OH; N-terminus and C-terminus assumed)	>10 mM
NCC(=O)N1CCC[C@H]1C(=O)N1C[C@H](O)C[C@H]1C(=O)O [GPO, Gly-Pro-Hyp] (H-Gly-Pro-[Hyp]-OH)	>10 mM
C[C@H](NC(=O)[C@@H]1CCCN1)C(=O)NCC(=O)O [PAG, reference compound] (H-Pro-Ala-Gly-OH; N-terminus and C-terminus assumed)	>10 mM
N[C@@H](CO)C(=O)N1C[C@H](O)C[C@H]1C(=O)NCC(=O)O [SOG, Ser-Hyp-Gly] (H-Ser-[Hyp]-Gly-OH; N-terminus and C-terminus assumed)	3.0 mM

tested on: Human-derived intestinal tract L cells (NCI-H716 cell); test: not given; assay type: cell-based; details: discussion of results
Protocol: Human-derived intestinal tract L cells (NCI-H716 cell: manufactured by ATCC) were inoculated at 5×10^5 cells/mL×200 μL (1×10^5 cells/well) in a RPIM medium containing 10% FBS (manufactured by ATCC) on a Pre-coated poly-L-lysin plate (96 wells plate) and cultured for 2 days. After confirming that the cells were adhered to the plate, the medium was replaced by a test medium (146 mM NaCl, 5 mM KCl, 1.5 mM CaCl2, 1 mM MgSO4, 20 mM HEPES, 5.6 mM glucose, 2 mg/mL BSA) and a sample was added at a final concentration of 5 mM. A culture supernatant after 1 hour was 30-fold diluted with PBS, and tested with GLP-1 ELISA kit (manufactured by Levis) according to the protocol.
Based on GLP-1 secretion in the case not added with the sample (Blank) as 100%, a GLP-1 secretion accelerating percentage in the fraction added with 5 mM sample was calculated.

Compound	GLP-1 secretion accelerating activity (in words)
Hyp-Gly [OG]	have GLP-1 secretion accelerating activity
Pro-Gly [PG]	have GLP-1 secretion accelerating activity
Pro-Hyp [PO]	have GLP-1 secretion accelerating activity
Pro-Pro [PP]	have GLP-1 secretion accelerating activity

same assay, conditions: peptides; 5 mM sample, 1 hour, NCI-H716 cells, Blank = 100%, n = 4

Compound	GLP-1 secretion accelerating percentage
C[C@H](N)C(=O)N1C[C@H](O)C[C@H]1C(=O)O [AO, Ala-Hyp] (H-Ala-[Hyp]-OH; N-terminus and C-terminus assumed)	262 ± 71%
NCC(=O)N1CCC[C@H]1C(=O)N1C[C@H](O)C[C@H]1C(=O)O [GPO, Gly-Pro-Hyp] (H-Gly-Pro-[Hyp]-OH)	278 ± 60%
Hyp-Gly [OG]	152 ± 22%
Pro-Gly [PG]	168 ± 15%
Pro-Hyp [PO]	154 ± 44%
Pro-Pro [PP]	167 ± 53%

tested on: not listed separately; test: Intestinal tract absorptivity (intragastric administration, portal vein perfusate, LC/MS/MS); assay type: in vivo, Wistar rats; details: male, Wistar, rat, in vivo, po, 215 nmol/10 mL
Protocol: Male Wistar rats (170 g) were fasted overnight before subjected to the experiment. As a test sample, 215 nmol/10 mL of each of the peptides was used, and intragastrically administered. As a test method, heart and portal vein of each rat were attached with a cannula to make one-directional perfusion. […] To a perfusion sample solution (5.0 mL) collected from the portal vein was added 0.5 mL of 30% sulfosalicylic acid and stirred vigorously, and left overnight in a refrigerator. This sample was centrifuged at 3000 rpm for 10 minutes, to remove protein. For the supernatant of centrifugation, an amount of hydroxyproline in 0.5 mL was colorimetrically quantified, and an amount of free-type Hyp was obtained. […] After concentrating and drying the resultant in an evaporator, and removing the hydrochloric acid, the solid was dissolved in 5 mL of distilled water, and several drops of a saturated lithium hydroxide solution was added thereto to adjust pH at 5 to 7, and the volume was fixed at 10 mL. […] The value obtained by subtracting the amount of free-type Hyp before hydrolysis from the total Hyp amount after hydrolysis is an amount of peptide-form Hyp. From this amount of peptide-form Hyp, a quantitative value of absorption of each peptide into rat portal vein perfusate in the test sample was first determined. The colorimetric quantification of the amount of hydroxyproline was conducted by a […] and Shill method, and was concretely conducted in the following manner. That is, 2 mL of 2-propanol was added to 2 mL of a sample solution and stirred thoroughly. Then, 0.5 mL of a chloramine T liquid being an oxidizing agent was added to the mixture, and left still for accurately 4 minutes, and then cooled on ice. Then, 5 mL of a p-dimethylaminobenzaldehyde solution was added to the mixture and stirred thoroughly, and then heated in a boiling water bath for accurately 2 minutes. Then, the reaction was immediately cooled on ice, and left still for 1 hour, and then colorimetrically quantified at a wavelength of 575 nm. […] Further, the p-dimethylaminobenzaldehyde solution (Erich solution) was prepared by dissolving 20 g of p-dimethylaminobenzaldehyde powder in 22 mL of concentrated hydrochloric acid under heating in boiling water, and immediately cooling the same in ice water, and adding 122 mL of 2-propanol and dissolving it under stirring. Next, peptides collected in the rat portal vein perfusate, namely the aforementioned intestinally absorbed peptides were identified and quantified by the following HPLC analysis and mass spectrometry (LC/MS/MS). Analysis of the peptide in the perfusate was conducted by reverse-phase HPLC analysis. As a HPLC device, an LCSS-905 system manufactured by JASCO Corporation, consisting of a liquid feeding pump, a degasser, an automatic sampler, a column open, a UV spectrophotometer, a printer, and a system controller was used. As a reverse-phase column, Nova Pak C18 (3.9×150 mm) was used. […] As a HPLC device, U980HPLC (manufactured by JASCO Corporation) attached with an ODS(C18) column (Mightysil RP-18, 2×250 mm, manufactured by Kanto Chemical Co., Ltd.) was used. As a mobile phase solvent, a 0.2% formic acid-containing acetonitrile-water system was used, and the concentration of acetonitrile was increased from 0% to 40% over 40 minutes by a linear gradient, and it was washed with 100% acetonitrile for 10 minutes. […] MS analysis was conducted by a MS/MS system using a Quattro LC mass spectrophotometer (Micromass, Manchester, UK) according to a four-channel Multiple Reaction Monitoring method. To be more specific, the elute from HPLC was monitored by m/z being [M+H]^+ and by m/z of its fragment ion species. At this time, [M+H]^+ m/z was monitored using 302.2>189.4 for LOG; 286.1>189.3 for POG; 187.1>70.3 for PA; 261.1>243.4 for EO, 245.1>132.3 for LO; 245.2>132.1 for IO; 318.1>225.4 for EOG; 276.1>189.4 for SOG; 219.1>132.2 for SO; and 260.1>189.4 for AOG.

level at time molar	Compound
105 ± 1.3 µM	C[C@H](NC(=O)[C@@H]1CCCN1)C(=O)NCC(=O)O [PAG, reference compound] (H-Pro-Ala-Gly-OH; N-terminus and C-terminus assumed)
103.2 ± 1 µM	N[C@@H](CO)C(=O)N1C[C@H](O)C[C@H]1C(=O)NCC(=O)O [SOG, Ser-Hyp-Gly] (H-Ser-[Hyp]-Gly-OH; N-terminus and C-terminus assumed)

Compound	level at time molar
C[C@H](N)C(=O)N1C[C@H](O)C[C@H]1C(=O)O [AO, Ala-Hyp] (H-Ala-[Hyp]-OH; N-terminus and C-terminus assumed)	71 ± 0.9 µM

same assay, conditions: rat, po; male Wistar rats, 215 nmol/10 mL intragastrically, portal vein perfusate; read-out: Amount of peptide identified after absorption

Compound	level at time molar
NCC(=O)N1CCC[C@H]1C(=O)N1C[C@H](O)C[C@H]1C(=O)O [GPO, Gly-Pro-Hyp] (H-Gly-Pro-[Hyp]-OH)	2.2 µM

tested on: ob/ob mice; test: Evaluation of sugar tolerance by glucose loading test; assay type: in vivo; details: 0.85 g/kg orally 30 minutes before oral glucose 2 g/kg
Protocol: Six-weeks old male ob/ob mice (Japan SLC) were allowed to acclimate by feeding with normal diet (MF, Oriental Yeast) for 7 days, and subjected to the experiment. After fasting the same mice overnight (16 hours), each collagen peptide (0.85 g/kg) or casein (0.85 g/kg, manufactured by DMV, Netherlands) was orally administered, and glucose (2 g/kg) was orally administered after 30 minutes, and the effect on the sugar tolerance was examined by a glucose loading test (2 g/kg). After 0, 15, 30, 60 and 120 minutes, the blood sugar level was measured by using a blood glucose measuring apparatus (Glutest ace R, SANWA KAGAKU KENKYUSHO CO., LTD.), and AUC0-120 min was calculated, and evaluated.

Compound	AUC0-120 min × 1000 (blood sugar level)
Casein	40.0 ± 2.0 min mg/dL
